We go through 25 compounds from patent US9273057B2 (Bristol-Myers Squibb Company, priority 2012, dated 2016).

Where a name gives a salt, the structure may show the parent alone.

Sequence of CK2A1 (CK2α/β) (P68400 whole entry, species assumed): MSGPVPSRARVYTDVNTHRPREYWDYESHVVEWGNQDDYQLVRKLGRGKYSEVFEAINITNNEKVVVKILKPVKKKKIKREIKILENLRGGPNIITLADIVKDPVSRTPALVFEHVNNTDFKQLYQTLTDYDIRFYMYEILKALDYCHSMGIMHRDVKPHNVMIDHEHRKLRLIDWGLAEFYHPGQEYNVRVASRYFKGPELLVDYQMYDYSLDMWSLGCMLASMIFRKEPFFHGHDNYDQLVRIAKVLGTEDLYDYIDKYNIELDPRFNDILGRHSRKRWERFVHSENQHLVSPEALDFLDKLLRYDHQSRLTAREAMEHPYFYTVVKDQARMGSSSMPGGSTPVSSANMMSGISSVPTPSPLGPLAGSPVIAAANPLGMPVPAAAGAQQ
Sequence of CK2A1 (CK2α/β) (P67870 whole entry partner, species assumed): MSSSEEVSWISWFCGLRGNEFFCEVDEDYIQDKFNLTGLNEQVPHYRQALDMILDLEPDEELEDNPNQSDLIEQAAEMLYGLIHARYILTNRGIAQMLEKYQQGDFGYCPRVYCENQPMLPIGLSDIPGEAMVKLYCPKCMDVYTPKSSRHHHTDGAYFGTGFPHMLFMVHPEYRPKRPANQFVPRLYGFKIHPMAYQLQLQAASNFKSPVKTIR

This assay concerns the target CK2A1 (CK2α/β) (Homo sapiens, UniProt P68400). In words: CK2 kinase assay, CK2A1 (CK2α/β). It counts as biochemical. The note with it: Table A; read-out: CK2A1 (CK2α/β) (IC50).
For the compound `CCNc1nc(Nc2ccc3c(c2)c(C#N)cn3C2CCN(C3CN(C(=O)OC(C)(C)C)C3)CC2)nn2c(C#N)cnc12` [Example 831, tert-butyl 3-(4-(3-cyano-5-((7-cyano-4-(ethylamino)imidazo[2,1-f][1,2,4]triazin-2-yl)amino)-1H-indol-1-yl)piperidin-1-yl)azetidine-1-carboxylate], the IC50 was 0.71 nM.

Turning to `CC(F)(F)C(=O)N1CC(N2CCN(c3cc(C#N)cc(Nc4nc(NC5CC5)c5ncc(C#N)n5n4)c3Cl)CC2)C1` [Example 516, 2-[(2-chloro-5-cyano-3-{4-[1-(2,2-difluoropropanoyl)azetidin-3-yl]piperazin-1-yl}phenyl)amino]-4-(cyclopropylamino)imidazo[2,1-f][1,2,4]triazine-7-carbonitrile], the IC50 worked out at 4.09 nM.

Turning to `N#Cc1cc(CN2CC(O)C2)c(Cl)c(Nc2nc(NC3CC3)c3ncc(C#N)n3n2)c1` [Example 673, 2-((2-chloro-5-cyano-3-((3-hydroxyazetidin-1-yl)methyl)phenyl)amino)-4-(cyclopropylamino)imidazo[2,1-f][1,2,4]triazine-7-carbonitrile], the IC50 worked out at 0.49 nM.

In the case of `CC(C)(CO)C(=O)N1CC(N2CCN(c3cc(C#N)cc(Nc4nc(NC5CC5)c5ncc(C#N)n5n4)c3Cl)CC2)C1` [Example 494, 2-[(2-chloro-5-cyano-3-{4-[1-(3-hydroxy-2,2-dimethylpropanoyl)azetidin-3-yl]piperazin-1-yl}phenyl)amino]-4-(cyclopropylamino)imidazo[2,1-f][1,2,4]triazine-7-carbonitrile], the IC50 was 1.99 nM.

Consider `CCNc1nc(Nc2cc(C#N)cc(N3CC[C@@H](NC(=O)OC)[C@H](OC(=O)[C@@H](NC(=O)[C@@H](N)CCCNC(=N)N)C(C)C)C3)c2Cl)nn2c(C#N)cnc12` [Example 823, (S)-(3R,4R)-1-(2-chloro-5-cyano-3-((7-cyano-4-(ethylamino)imidazo[2,1-f][1,2,4]triazin-2-yl)amino)phenyl)-4-((methoxycarbonyl)amino)piperidin-3-yl 2-((S)-2-amino-5-guanidinopentanamide)-3-methylbutanoate trihydrochloride], for which the IC50 stood at 2 nM.

As to `N#CCNC1CCN(c2cc(C#N)cc(Nc3nc(NC4CC4)c4ncc(C#N)n4n3)c2Cl)CC1` [Example 141, 2-((2-chloro-5-cyano-3-(4-((cyanomethyl)amino)-1-piperidinyl)phenyl)amino)-4-(cyclopropylamino)imidazo [2,1-f][1,2,4]triazine-7-carbonitrile], the IC50 turned out to be 0.67 nM.

In the case of `CCNc1nc(Nc2cc(C#N)cc(N3CC[C@@H]4[C@@H](C3)OCCN4C(=O)OC)c2Cl)nn2c(C#N)cnc12` (racemic) [Example 372, (+/−)-(4aR,8aR)-methyl 6-(2-chloro-5-cyano-3-((7-cyano-4-(ethylamino)imidazo[2,1-f][1,2,4]triazin-2-yl)amino)phenyl)octahydro-1H-pyrido[3,4-b][1,4]oxazine-1-carboxylate], the IC50 is 0.94 nM.

On to `CCOC(=O)N1CCC(NC2CCN(c3cc(C#N)cc(Nc4nc(NC5CC5)c5ncc(C#N)n5n4)c3Cl)CC2)CC1` [Example 118, ethyl 4-((1-(2-chloro-5-cyano-3-((7-cyano-4-(cyclopropylamino)imidazo [2,1-f][1,2,4]triazin-2-yl)amino)phenyl)-4-piperidinyl)amino)-1-piperidinecarboxylate], for which the IC50 was 0.84 nM.

Consider `CC(CO)N1CC(N2CCN(c3cc(C#N)cc(Nc4nc(NC5CC5)c5ncc(C#N)n5n4)c3Cl)CC2)C1` (stereo not shown) [Example 608, 2-[(2-chloro-5-cyano-3-{4-[1-(1-hydroxypropan-2-yl)azetidin-3-yl]piperazin-1-yl}phenyl)amino]-4-(cyclopropylamino)imidazo [2,1-f][1,2,4]triazine-7-carbonitrile], for which the IC50 is 1.48 nM.

For the compound `CCNc1nc(Nc2cc(C#N)cc(N3CCN(C4(C)COC4)CC3)c2Cl)nn2c(C#N)cnc12` [Example 542, 2-((2-chloro-5-cyano-3-(4-(3-methyloxetan-3-yl)piperazin-1-yl)phenyl)amino)-4-(ethylamino)imidazo[2,1-f][1,2,4]triazine-7-carbonitrile], the IC50 stood at 1.35 nM.

As for `CC(C)(O)[C@H]1CN(c2cc(C#N)cc(Nc3nc(NC4CC4)c4ncc(C#N)n4n3)c2Cl)CCO1` [Example 38, 2-((2-chloro-5-cyano-3-((2R)-2-(1-hydroxy-1-methylethyl)-4-morpholinyl)phenyl)amino)-4-(cyclopropylamino)imidazo [2,1-f][1,2,4]triazine-7-carbonitrile], the IC50 was found to be 1.2 nM.

Turning to `Cc1nn(CCN(C)C)c(C)c1-c1cc(C#N)cc(Nc2nc(NC3CC3)c3ncc(C#N)n3n2)c1Cl` [Example 719, 2-[(2-chloro-5-cyano-3-{1-[2-(dimethylamino)ethyl]-3,5-dimethyl-1H-pyrazol-4-yl}phenyl)amino]-4-(cyclopropylamino)imidazo [2,1-f][1,2,4]triazine-7-carbonitrile], the IC50 stood at 7.41 nM.

Turning to `CC(CCNCCC(F)(F)F)c1cc(C#N)cc(Nc2nc(NC3CC3)c3ncc(C#N)n3n2)c1Cl` (stereo not shown) [Example 576, 2-((2-chloro-5-cyano-3-(4-((3,3,3-trifluoropropyl)amino)butan-2-yl)phenyl)amino)-4-(cyclopropylamino)imidazo[2,1-f][1,2,4]triazine-7-carbonitrile], the IC50 was 1.59 nM.

On to `N#Cc1cc(Nc2nc(NC3CC3)c3ncc(C#N)n3n2)c(Cl)c(N2CCOC(CO)C2)c1` (racemic) [Example 697, (+/−)-2-((2-chloro-5-cyano-3-(2-(hydroxymethyl)morpholino)phenyl)amino)-4-(cyclopropylamino)imidazo[2,1-f][1,2,4]triazine-7-carbonitrile], for which the IC50 came out at 0.2 nM.

Regarding `CN[C@@H]1CCN(c2cc(C#N)cc(Nc3nc(NC4CC4)c4ncc(C#N)n4n3)c2Cl)C[C@H]1O` (racemic) [Example 186, (+/−)-2-((2-chloro-5-cyano-3-((3R,4R)-3-hydroxy-4-(methylamino)piperidin-1-yl)phenyl)amino)-4-(cyclopropylamino)imidazo[2,1-f][1,2,4]triazine-7-carbonitrile], the IC50 came to 1.06 nM.

For the compound `COC(=O)N[C@H]1CCN(c2cc(C#N)cc(Nc3nc(NC4CC4)c4ncc(C#N)n4n3)c2Cl)CC1N[C@@H](C)C(N)=O` (stereo partly drawn) [Example 753, methyl N-[(4S)-3-{[(1S)-1-carbamoylethyl]amino}-1-(2-chloro-5-cyano-3-{[7-cyano-4-(cyclopropylamino)imidazo [2,1-f][1,2,4]triazin-2-yl]amino}phenyl)piperidin-4-yl]carbamate], the IC50 was found to be 2.46 nM.

Take `CC(CCN1CC(O)C1)c1cc(C#N)cc(Nc2nc(NC3CC3)c3ncc(C#N)n3n2)c1Cl` (stereo not shown) [Example 575, 2-((2-chloro-5-cyano-3-(4-(3-hydroxyazetidin-1-yl)butan-2-yl)phenyl)amino)-4-(cyclopropylamino)imidazo[2,1-f][1,2,4]triazine-7-carbonitrile]: the IC50 amounted to 0.98 nM.

Consider `CCNc1nc(Nc2cc(C#N)cc(N3CC[C@@H](N4CC(O)C4)[C@H](O)C3)c2Cl)nn2c(C#N)cnc12` (racemic) [Example 776, (+/−)-2-((2-chloro-5-cyano-3-((3R,4R)-3-hydroxy-4-(3-hydroxyazetidin-1-yl)piperidin-1-yl)phenyl)amino)-4-(ethylamino)imidazo[2,1-f][1,2,4]triazine-7-carbonitrile], for which the IC50 stood at 1.2 nM.

On to `N#Cc1cc(Nc2nc(NC3CC3)c3ncc(C#N)n3n2)c(Cl)c(N2CCOC(C(=O)N3CCOCC3)C2)c1` (racemic) [Example 300, (+/−)2-((2-chloro-5-cyano-3-(2-(morpholine-4-carbonyl)morpholino)phenyl)amino)-4-(cyclopropylamino)imidazo[2,1-J][1,2,4]triazine-7-carbonitrile], for which the IC50 was 1.62 nM.

For `CC(=O)NCC1CN(c2cc(C#N)cc(Nc3nc(NC4CC4)c4ncc(C#N)n4n3)c2Cl)CCO1` (stereo not shown) [Example 712, N-{[4-(2-chloro-5-cyano-3-{[7-cyano-4-(cyclopropylamino)imidazo[2,1-f][1,2,4]triazin-2-yl]amino}phenyl)morpholin-2-yl]methyl}acetamide], the IC50 stood at 1.18 nM.

With `N#Cc1cc(Nc2nc(NC3CC3)c3ncc(C#N)n3n2)c(Cl)c(C2CCN(C3CC4(COC4)C3)CC2)c1` [Example 222, 2-((2-chloro-5-cyano-3-(1-(2-oxaspiro[3.3]hept-6-yl)-4-piperidinyl)phenyl)amino)-4-(cyclopropylamino)imidazo[2,1-f][1,2,4]triazine-7-carbonitrile], the IC50 turned out to be 1.17 nM.

With `N#Cc1cc(Nc2nc(NC3CC3)c3ncc(C#N)n3n2)c(Cl)c(N2CCC3(CC2)COC3)c1` [Example 48, 2-((2-chloro-5-cyano-3-(2-oxa-7-azaspiro[3.5]non-7-yl)phenyl)amino)-4-(cyclopropylamino)imidazo [2,1-f][1,2,4]triazine-7-carbonitrile], the IC50 amounted to 0.71 nM.

Turning to `N#Cc1cc(Nc2nc(NC3CC3)c3ncc(C#N)n3n2)c(Cl)c(N2CCN(C3(CO)COC3)CC2)c1` [Example 538, 2-((2-chloro-5-cyano-3-(4-(3-(hydroxymethyl)oxetan-3-yl)piperazin-1-yl)phenyl)amino)-4-(cyclopropylamino)imidazo[2,1-f][1,2,4]triazine-7-carbonitrile], the IC50 stood at 2.1 nM.

Consider `CN1CC(N(C)C2CCN(c3cc(C#N)cc(Nc4nc(NC5CC5)c5ncc(C#N)n5n4)c3Cl)CC2)CC1=O` (stereo not shown) [Example 714, 2-((2-Chloro-5-cyano-3-(4-(methyl(1-methyl-5-oxopyrrolidin-3-yl)amino)piperidin-1-yl)phenyl)amino)-4-(cyclopropylamino)imidazo[2,1-f][1,2,4]triazine-7-carbonitrile], for which the IC50 turned out to be 44.6 nM.

In the case of `N#CCC(=O)N1CCC(c2cc(C#N)cc(Nc3nc(NC4CC4)c4ncc(C#N)n4n3)c2Cl)CC1` [Example 230, 2-((2-chloro-5-cyano-3-(1-(cyanoacetyl)-4-piperidinyl)phenyl)amino)-4-(cyclopropylamino)imidazo[2,1-f][1,2,4]triazine-7-carbonitrile], the IC50 worked out at 1.04 nM.
